Source: patent publication US11932870B2, “Compositions and methods for immune cell modulation in adoptive immunotherapies” (Fate Therapeutics, Inc., priority 2016, dated 2024)
Counter-ions that a name gives are not always drawn.

Legend:
viable CD8+ population = assay: T cell compound screen: CCR7+CD62L+ cells in the viable CD8+ population (flow cytometry); type: cell-based, human; conditions: 10 μM, about 6 days; for CD8 Hit: anti-CD3/anti-CD28 beads, hit = Z-score > +2 for percent or absolute number CCR7+CD62L+ in CD8+; for number or ratio of cells co-expressing CCR7 and CD62L: viable CD8+ population
Excerpt: (§1) In Vitro T Cell Culture. Fresh leukopaks (AllCells, Alameda, CA) were obtained from healthy donors, from which T cells were negatively selected using the EasySep Human T cell Enrichment Kit (Stem Cell Technologies, Vancouver, Canada). The freshly isolated T cells were aliquoted and cryopreserved. On the day the screens were initiated, T cells were thawed and washed into X-Vivo 15 with 5% human AB serum, IL-2, pen/strep, and additional supplements. Cells were dispensed into flat-bottom 384-well plates at 5×10^5 cells/ml with anti-CD3/anti-CD28 beads. Individual compounds were added at a final concentration of 10 μM to each well from column 3 to column 22 of each plate. Positive and negative controls were added to additional wells. Cells were incubated for about 6 days at 37 degrees with 5% CO2.
(§2) Flow Cytometry. On Day 6 of culture, cells were stained with a fixable viability marker and fluorophore-conjugated antibodies: CD3, CD4, CD8, CD45RA, CD45RO, CD62L, CCR7, CD27, and CD122 (BD Biosciences, San Jose, CA; and BioLegend, San Diego, CA). Fluorescent absolute counting beads (Spherotech, Lake Forest, IL) were added just prior to acquisition. Data acquisition was performed on a BD Fortessa X-20 (BD Biosciences) and data were analyzed using Treestar software (FlowJo, Ashland, OR) and Spotfire (Tibco, Boston, MA).
(§3) These cells are characterized by expression of CCR7 and CD62L. Therefore, cells co-expressing both of these identifying markers were evaluated. Within the viable CD4+ population and viable CD8+ population, the percent of cells co-expressing CCR7 and CD62L was determined. The expression of either CD62L or CCR7 on T cells, as indicative of the desired T cell subsets, have been described as having favorable functional characteristics for CAR-T cell therapy, and potentially other adoptive T cell therapies.
(§4) The number of events in each of these gates relative to the number of absolute counting beads in each sample was calculated, defining a measure of the absolute number of naïve, stem cell memory, or central memory T cells within the CD4+ and/or CD8+ populations. A z-Score relative to the screened compound samples within each 384-well plate was calculated for each of these four values: 1) percent CCR7+CD62L+in CD4+, 2) percent CCR7+CD62L+in CD8+, 3) absolute relative number of CCR7+CD62L+in CD4+, and 4) absolute number of CCR7+CD62L+in CD8+(FIGS. 1A and 1i). Z-scores were also calculated for the percent viability of all cells within each sample and the relative absolute number of cells within each sample. A “Z-Score” is a statistical measurement of a score's relationship to the mean in a group of scores. AZ-score of 0 means the score is the same as the mean. AZ-score can also be positive or negative, indicating whether it is above or below the mean and by how many standard deviations.

viable CD4+ population = assay: T cell compound screen: CCR7+CD62L+ cells in the viable CD4+ population (flow cytometry); type: cell-based, human; conditions: 10 μM, about 6 days; for CD4 Hit: anti-CD3/anti-CD28 beads, hit = Z-score > +2 for percent or absolute number CCR7+CD62L+ in CD4+; for number or ratio of cells co-expressing CCR7 and CD62L: viable CD4+ population
Excerpt: as §1, §2, §3, §4

SMILES	CD8 Hit (viable CD8+ population)	number or ratio of cells co-expressing CCR7 and CD62L (viable CD8+ population)	CD4 Hit (viable CD4+ population)	number or ratio of cells co-expressing CCR7 and CD62L (viable CD4+ population)
C/C=C(/C)C(=O)O[C@H]1C(C)=C2[C@H]([C@@H]1OC(=O)CCCCCCC)[C@@](C)(OC(C)=O)C[C@H](OC(=O)CCC)[C@@]1(O)[C@H]2OC(=O)[C@@]1(C)O [Thapsigargin]	CD8	increased	–	–
C=CCc1cccc(/C=N/NC(=O)CN2CCN(Cc3ccccc3)CC2)c1O [PAC-1]	–	–	CD4	increased
NC1CCN(c2nc3c(cc2F)c(=O)c(C(=O)O)cn3-c2ccc(F)cc2F)C1 (stereo not drawn) [Tosufloxacin hydrochloride]	–	–	CD4	increased
CN(C)[C@@H]1C(=O)C(C(N)=O)=C(O)[C@@]2(O)C(=O)C3=C(O)c4c(O)ccc(Cl)c4[C@@H](O)[C@H]3C[C@@H]12.Cl [2-Naphthacenecarboxamide, 7-chloro-4-(dimethylamino)-1,4,4a,5,5a,6,11,12a-octahy]	CD8	increased	–	–
CC(C)(C)c1ccc(C(O)CCCN2CCC(C(O)(c3ccccc3)c3ccccc3)CC2)cc1 (stereo not drawn) [Terfenadine]	–	–	CD4	increased
CN(C)c1ccc(C=C2C(=O)Nc3ccccc32)cc1 [SU 4312]	CD8	increased	–	–
N.S=C(S)N1CCCC1 [1-Pyrrolidinecarbodithioic acid, ammonium salt]	–	–	CD4	increased
Oc1c(Cl)cc(Cl)c2cccnc12 [8-Quinolinol, 5,7-dichloro-]	CD8	increased	CD4	increased
C=CC1=C(C)c2cc3[nH]c(cc4nc(cc5[nH]c(cc1n2)c(C)c5CCC(=O)O)C(CCC(=O)O)=C4C)c(C)c3C=C [Protoporphyrin IX disodium]	–	–	CD4	increased
COc1cc2nc(N3CCCN(C)CC3)nc(NC3CCN(Cc4ccccc4)CC3)c2cc1OC [BIX01294]	–	–	CD4	increased
Oc1cccc(-c2nc(N3CCOCC3)c3oc4ncccc4c3n2)c1 [PI-103]	CD8	increased	CD4	increased
O=C(O)Cc1cc(I)c(Oc2ccc(O)c(I)c2)c(I)c1 [Tiratricol]	CD8	increased	CD4	increased
COc1ccc(-c2cc3nccn3c(Nc3ncccc3C(N)=O)n2)cc1OC [BAY 61-3606]	–	–	CD4	increased
C[C@]12CC[C@@H]3c4ccc(O)cc4C[C@@H](CCCCCCCCC[S+]([O-])CCCC(F)(F)C(F)(F)F)[C@H]3[C@@H]1CC[C@@H]2O (stereo partly drawn) [Fulvestrant]	CD8	increased	–	–
CCC(CO)Nc1nc(NCc2ccccc2)c2ncn(C(C)C)c2n1 (stereo in doubt) [Roscovitine, (S)-Isomer]	–	–	CD4	increased
CN[C@H]1CC[C@@H](c2ccc(Cl)c(Cl)c2)c2ccccc21 [Sertraline]	CD8	–	CD4	–
O=C(O)CN(CCN(CC(=O)O)CC(=O)O)CCN(CC(=O)O)CC(=O)O [Diethylenetriaminepentaacetic acid, pentasodium]	CD8	increased	CD4	increased
CC[N+](C)(C)c1cccc(O)c1 [Edrophonium chloride]	CD8	increased	–	–
O=C(N/N=C/c1ccc([N+](=O)[O-])o1)c1ccc(O)cc1 [Nifuroxazide]	CD8	increased	–	–
Sc1ncnc2nc[nH]c12 [6-Mercaptopurine]	CD8	increased	CD4	increased
CC(C)C1CCC2(CO2)C2C(=O)OCC(C(=O)O)=CC12 (stereo not drawn) [Heptelidic acid]	CD8	increased	CD4	increased
Oc1c(I)cc(Cl)c2cccnc12 [8-Quinolinol, 5-chloro-7-iodo-]	CD8	increased	CD4	increased
CCCc1nc2c(C)cc(-c3nc4ccccc4n3C)cc2n1Cc1ccc(-c2ccccc2C(=O)O)cc1 [Telmisartan]	–	–	CD4	increased
Nc1ncn([C@@H]2O[C@H](CO)[C@@H](O)[C@H]2O)c(=O)n1 [5-Azacytidine]	CD8	increased	CD4	increased
CCCc1c(-c2ccc(O)cc2)nn(-c2ccc(O)cc2)c1-c1ccc(O)cc1 [1,3,5-tris(4-hydroxyphenyl)-4-propyl-1H-pyrazole]	–	–	CD4	increased
CC[n+]1c(/C=C/C=C2/N(C)c3ccccc3C2(C)C)sc2ccccc21.[I-] [AC-93253 iodide]	CD8	increased	CD4	increased
N#CC(=C(/N)Sc1ccccc1N)/C(C#N)=C(\N)Sc1ccccc1N [U0126]	–	–	CD4	increased
